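Each compound was tested at five concentrations against cells in 96-well plates for 48 hours. GI50 is the concentration that inhibits growth by half. The concentration for full growth arrest is given as TGI.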
How the values were obtained:
Test in all cases: NCI anticancer screen, dose series, 48 h
[1] = test system: K-562 leukemia
[2] = test system: SR leukemia
[3] = test system: NCI-H23 lung
[4] = test system: LXFL 529 NSCLC
[5] = test system: COLO 205 colon
[6] = test system: CCRF-CEM leukemia
[7] = test system: DMS 273 small cell lung
[8] = test system: SNB-75 CNS
[9] = test system: A498 renal
[10] = test system: BT-549 breast

Structure (SMILES): COC(=O)C1=CCC2c3[nH]c4ccccc4c3CCN2C1 (stereo unspecified)
- TGI [1]: > 354 µM
- TGI [2]: > 354 µM
- TGI [3]: > 354 µM
- TGI [4]: > 354 µM
- TGI [5]: > 354 µM
- TGI [6]: > 354 µM
- TGI [7]: > 354 µM

Structure (SMILES): N#C/C(=C\c1ccc[nH]1)C(=O)c1ccccc1
- TGI [1]: > 100 µM
- TGI [2]: > 100 µM
- TGI [3]: > 100 µM
- TGI [4]: > 100 µM
- TGI [8]: > 100 µM
- TGI [5]: > 100 µM
- TGI [6]: > 100 µM
- TGI [7]: > 100 µM

Structure (SMILES): CCc1ccccc1NC(=O)C(=O)C1C(=O)N(c2ccccc2)N=C1N (stereo unspecified)
- TGI [1]: > 100 µM
- TGI [9]: > 100 µM
- TGI [3]: > 100 µM
- TGI [4]: > 100 µM
- TGI [8]: > 100 µM
- TGI [7]: > 100 µM

Structure (SMILES): CC1C(O)=C(O)c2ccccc2N1O (stereo unspecified)
- TGI [1]: > 100 µM
- TGI [9]: > 100 µM
- TGI [3]: > 100 µM
- TGI [4]: > 100 µM
- TGI [8]: > 100 µM
- TGI [5]: > 100 µM
- TGI [6]: > 100 µM
- TGI [7]: > 100 µM

Structure (SMILES): CC1=CC[C@@H](C(C)(C)O)C[C@@H]1O
- TGI [1]: > 5000 µM
- TGI [2]: > 5000 µM
- TGI [9]: > 5000 µM
- TGI [3]: > 5000 µM
- TGI [4]: > 5000 µM
- TGI [8]: > 5000 µM
- TGI [5]: > 5000 µM
- TGI [6]: > 5000 µM

Structure (SMILES): CC[C@@H](C)/C=C(C)/C=C/C(=O)c1c(O)c(-c2ccc(O)cc2)cn(OC2CC(=O)CCC(C)OC(=O)CC2O)c1=O (stereo partly specified)
- GI50 [1]: 0.386 µM
- TGI [1]: > 47.9 µM
- GI50 [2]: 0.21 µM
- TGI [2]: 1.27 µM
- GI50 [9]: 1.98 µM
- TGI [9]: 24 µM
- GI50 [3]: 0.406 µM
- TGI [3]: 9.29 µM
- GI50 [10]: 0.554 µM
- TGI [10]: 16.2 µM
- GI50 [8]: 1.07 µM
- TGI [8]: 19.3 µM
- GI50 [5]: 5.97 µM
- TGI [5]: 21.2 µM
- GI50 [6]: 0.163 µM
- TGI [6]: 12.6 µM

Structure (SMILES): COC(=O)C1=CC(=O)[C@@H]2CCCC[C@H]12
- TGI [1]: > 100 µM
- TGI [2]: > 100 µM
- TGI [4]: > 100 µM
- TGI [8]: > 100 µM
- TGI [5]: > 100 µM
- TGI [6]: > 100 µM
- TGI [7]: > 100 µM

Structure (SMILES): CCN(CC)C(=O)CC12CCCCC1=Nc1ccccc12 (stereo unspecified)
- TGI [1]: > 100 µM
- TGI [9]: > 100 µM
- TGI [3]: > 100 µM
- TGI [4]: > 100 µM
- TGI [8]: > 100 µM
- TGI [5]: > 100 µM
- TGI [6]: > 100 µM
- TGI [7]: > 100 µM

Structure (SMILES): O=C1OCC2=C1C(c1cccc(Cl)c1)c1cc3c(cc1N2CCO)CCC3 (stereo unspecified)
- GI50 [1]: 0.0478 µM
- TGI [1]: 14.4 µM
- GI50 [2]: 0.0609 µM
- TGI [2]: 21 µM
- GI50 [9]: 0.0215 µM
- TGI [9]: 0.0947 µM
- GI50 [3]: 0.0481 µM
- TGI [3]: 14.3 µM
- GI50 [10]: 0.166 µM
- TGI [10]: 8.69 µM
- GI50 [8]: 0.027 µM
- TGI [8]: 17.7 µM
- GI50 [5]: 0.0401 µM
- TGI [5]: 0.309 µM
- GI50 [6]: 0.0416 µM
- TGI [6]: 14.1 µM

Structure (SMILES): COc1ccc2nc3ccccc3c(NCCN(CCCl)CCCl)c2c1
- TGI [1]: 4.92 µM
- TGI [2]: 0.379 µM
- TGI [9]: 5.73 µM
- TGI [4]: 2.25 µM
- TGI [8]: 5.72 µM
- TGI [6]: 2.39 µM

Structure (SMILES): O=C(N/N=C/c1ccncc1)c1ccc(F)cc1
- GI50 [1]: > 40 µM
- TGI [1]: > 40 µM
- GI50 [2]: > 40 µM
- TGI [2]: > 40 µM
- GI50 [9]: 34.8 µM
- TGI [9]: > 40 µM
- GI50 [3]: > 40 µM
- TGI [3]: > 40 µM
- GI50 [10]: > 40 µM
- TGI [10]: > 40 µM
- GI50 [8]: > 40 µM
- TGI [8]: > 40 µM
- GI50 [5]: > 40 µM
- TGI [5]: > 40 µM
- GI50 [6]: > 40 µM
- TGI [6]: > 40 µM

Structure (SMILES): CCN(/N=C1\CC2C=CCN(C2)C(=O)Cc2c1[nH]c1ccccc21)S(=O)(=O)c1ccc(C)cc1 (stereo unspecified)
- TGI [1]: > 100 µM
- TGI [2]: > 100 µM
- TGI [3]: > 100 µM
- TGI [8]: > 100 µM
- TGI [5]: > 100 µM
- TGI [6]: > 100 µM
- TGI [7]: > 100 µM

Structure (SMILES): CC[C@@]1(O)C(=O)OCc2c1cc1n(c2=O)Cc2c-1nc1cc(F)c(C)c3c1c2[C@@H](NC(=O)CO)CC3
- GI50 [1]: 0.0193 µM
- TGI [1]: > 100 µM
- GI50 [2]: < 0.01 µM
- TGI [2]: > 100 µM
- GI50 [9]: < 0.011 µM
- TGI [9]: 0.0516 µM
- GI50 [3]: < 0.01 µM
- TGI [3]: 0.0729 µM
- GI50 [10]: < 0.0118 µM
- TGI [10]: 0.73 µM
- GI50 [8]: < 0.01 µM
- TGI [8]: 0.133 µM
- GI50 [5]: 0.127 µM
- TGI [5]: 4.16 µM
- GI50 [6]: < 0.01 µM
- TGI [6]: > 100 µM

Structure (SMILES): CCOc1ccc2c(c1)C(=O)c1c-2n(CCCN=[N+]=[N-])c(=O)c2cc([N+](=O)[O-])ccc12
- GI50 [1]: 17.2 µM
- TGI [1]: > 100 µM
- GI50 [2]: 0.176 µM
- TGI [2]: 11.9 µM
- GI50 [9]: 18.5 µM
- TGI [9]: 58.7 µM
- GI50 [3]: 0.997 µM
- TGI [3]: > 100 µM
- GI50 [10]: 13.1 µM
- TGI [10]: > 100 µM
- GI50 [8]: 17.3 µM
- TGI [8]: 39.9 µM
- GI50 [5]: 54.1 µM
- TGI [5]: > 100 µM
- GI50 [6]: 0.442 µM
- TGI [6]: 2.79 µM

Structure (SMILES): O=C(CC1(O)C(=O)Nc2ccccc21)c1ccccc1O (stereo unspecified)
- TGI [1]: > 100 µM
- TGI [9]: > 100 µM
- TGI [3]: > 100 µM
- TGI [4]: > 100 µM
- TGI [8]: > 100 µM
- TGI [5]: > 100 µM
- TGI [7]: > 100 µM

Structure (SMILES): COc1ncc(-c2ccc3nccc(C#CCCCCC(=O)NO)c3c2)cc1NS(=O)(=O)c1ccc(F)cc1F
- GI50 [1]: 1.98 µM
- TGI [1]: 16.7 µM
- GI50 [2]: 0.146 µM
- TGI [2]: 4.24 µM
- GI50 [9]: 0.0303 µM
- TGI [9]: 0.0962 µM
- GI50 [3]: 0.984 µM
- TGI [3]: 13 µM
- GI50 [10]: 0.0535 µM
- TGI [10]: 2.77 µM
- GI50 [8]: 0.0543 µM
- TGI [8]: 0.827 µM
- GI50 [5]: 0.0897 µM
- TGI [5]: 2.18 µM
- GI50 [6]: 0.105 µM
- TGI [6]: 5.65 µM

Structure (SMILES): O=C(Nc1cccc(-n2cc(-c3ccncc3)c(-c3ccc(Cl)c(O)c3)n2)c1)Nc1ccc(Cl)c(Cl)c1
- GI50 [1]: 1.41 µM
- TGI [1]: > 32.5 µM
- GI50 [2]: 1.14 µM
- TGI [2]: 15 µM
- GI50 [9]: 0.94 µM
- TGI [9]: 3.17 µM
- GI50 [3]: 1.22 µM
- TGI [3]: 29.1 µM
- GI50 [10]: 1.7 µM
- TGI [10]: 16.1 µM
- GI50 [8]: 1.09 µM
- TGI [8]: 12.2 µM
- GI50 [5]: 3.96 µM
- TGI [5]: 9.49 µM
- GI50 [6]: 1.03 µM
- TGI [6]: > 32.5 µM

Structure (SMILES): COC(=O)[C@]12CC[C@@H](C)[C@H](C)[C@@H]1C1=CC[C@@H]3[C@@](C)(CC#N)C4=C(C[C@@]3(C)[C@]1(C)CC2)OC[C@]4(C)C=O
- GI50 [1]: 3.22 µM
- TGI [1]: > 100 µM
- GI50 [2]: 2.56 µM
- TGI [2]: 7.44 µM
- GI50 [9]: 14.7 µM
- TGI [9]: 28.7 µM
- GI50 [3]: 3.88 µM
- TGI [3]: 40.7 µM
- GI50 [10]: 4.08 µM
- TGI [10]: 32.9 µM
- GI50 [8]: 3.22 µM
- TGI [8]: > 100 µM
- GI50 [5]: 14.4 µM
- TGI [5]: 29.6 µM
- GI50 [6]: 3.49 µM
- TGI [6]: 16.9 µM

Structure (SMILES): COc1cc(C(=O)NN=C2c3ccccc3-c3ccccc32)cc(OC)c1OC
- GI50 [1]: 0.829 µM
- TGI [1]: 26.2 µM
- GI50 [2]: 0.339 µM
- TGI [2]: 10.6 µM
- GI50 [9]: 2.95 µM
- TGI [9]: 13.9 µM
- GI50 [3]: 3.94 µM
- TGI [3]: 41.4 µM
- GI50 [10]: 3.78 µM
- TGI [10]: 28.9 µM
- GI50 [8]: 2.86 µM
- TGI [8]: 21 µM
- GI50 [5]: 3.49 µM
- TGI [5]: 32.1 µM
- GI50 [6]: 3.53 µM
- TGI [6]: > 100 µM
